pIC50: −log10 of the molar value.
Tests used:
wtKIT = molecular target: T1, wtKIT (Homo sapiens, UniProt P10721); test: HTRF biochemical assay, wtKIT (phosphorylation of a peptide substrate); details: Table 4
T1 construct: 1888289AM in the reaction mixtures
Outline: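 wtKIT (5.0 nM) phosphorylating 1 µM FAM-labelled peptide with 400 µM ATP and 10 mM MnCl2 in 100 mM HEPES pH 7.5, 1% DMSO, 3 h at 25 °C. EDTA quench; phosphopeptide detected with anti-phosphotyrosine antibody by HTRF. Enzyme titrated for 10-20% substrate conversion.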

CSF-1R = molecular target: T2, CSF-1R (Homo sapiens, UniProt P07333); test: HTRF biochemical assay, CSF-1R; details: Table 4
T2 construct: purchased Invitrogen PV3249 (lot 662393N)
Description: (§1) Exemplary compounds were tested for ability to inhibit the phosphorylation of a peptide substrate by the tyrosine kinase wt KIT, PDGFRα, or CSF-1R. Assay procedures and results are described below.
(§2) Enzyme, substrate, and cofactors (ATP and Mn^2+) are combined in a well of a microtiter plate and incubated for 3 hours at 25° C. At the end of the incubation, the reaction is quenched by the addition of an EDTA-containing buffer.
(§3) The substrate used in the CSF-1R and PDGFRα assay is FAM-[…]-CONH2 (FAM is carboxyfluorescein). Peptide should be >95% purity. The substrate for the KIT assay is FAM-[…]-NH2.
(§4) • 1. To a well of a 384-wellplate add 5 μL of 2× enzyme buffer (or control). • 2. Add 100 nL of 100× compound. Enzyme and compound may be pre-incubated at this time if desired. • 3. Add 5 μL of 2× substrate buffer. • 4. Incubate plate at 25° C. for 3 hours. • 5. Add 10 uL of anti-phosphotyrosine antibody buffer. • 6. Read plate in BioTek Synergy Reader. Reaction Conditions for wtKIT Assay

PDGFRα = molecular target: T3, PDGFRα (Homo sapiens, UniProt P16234); test: HTRF biochemical assay, PDGFRα; details: Table 4, read-out: PDFGRα Biochemical IC50 avg
T3 construct: purchased Millipore 14-467 (lot 26321_ACTI)
Description: as §1, §2, §3, §4

[1] = tested on: KIT phosphorylation in M-07e cells; test: Cell-based KIT phosphorylation in M-07e cells by pKIT ELISA; set-up: species or system human; details: SCF stimulation
Outline: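 Serum-starved M-07e cells (1 × 10^6/mL, overnight) were treated with compounds (8-point 3-fold series from 1 uM) for 2 h at 37 °C, then stimulated with 100 ng/mL SCF for 5 min. Lysate phospho-KIT was captured on anti-phospho-CD117 plates, detected with anti-pY-HRP, and read at 450 nm against a pc-KIT standard curve.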

Kinetic solubility assay = format: physicochemical; details: kinetic solubility, 50 mM PB (pH 7.4), shaken 24 hours at RT
Outline: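 Test compounds from 10 mM DMSO stock were diluted in 50 mM phosphate buffer, pH 7.4, and shaken for 24 h at RT. After PTFE filtration and centrifugation, filtrate concentration was quantified by UPLC-UV/HPLC-UV against a standard curve.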

[2] = molecular target: T4, KIT-NanoLuc fusion in HEK293 cells (Homo sapiens, UniProt P10721); test: NanoBRET cellular target engagement assay, KIT; format: cell-based
T4 construct: expressed in transfected cells; host or cells: HEK293, transient transfection
Description: Exemplary compounds were tested for their ability to inhibit target engagement of KIT or CSF-1R kinases through competitive displacement of a Nano-Luc luciferase kinase fusion in HEK293 cells.
The NanoBRET target engagement assay employs an energy transfer technique designed to measure molecular proximity in living cells. The assay measures the apparent affinity of test compounds by competitive displacement of the NanoBRET tracer, reversibly bound to a NanoLuc luciferase-kinase fusion construct in cells. The intracellular binding affinity and selectivity are physiologically relevant and fundamental to the pharmacological mechanism of the compounds. While biochemical and biophysical assays identify the kinase inhibitors in vitro, the NanoBRET target engagement assay serves to determine the direct interaction of the compounds binding to target kinases in cells.
HEK293 cells transiently expressing NanoLuc-DDR1 fusion vector were seeded into 384-well plates and treated with the Tracer K-4 and compound for 1 hour. The BRET signal was measured on an EnVision 2104 multilabel microplate reader. NanoBRET Target Engagement Assay in HEK293 cells transiently transfected with KIT and CSF1R-NanoLuc Fusion Vector. HEK293 cells were transfected with […] KIT or CSF1R-NanoLuc Fusion Vector and […] carrier DNA. The transfected cells were treated with test compounds (starting at 10 μM, 10-dose with 3-fold dilution) and reference compound (desatinib) (starting at 1 μM, 10-dose with 3-fold dilution). Percent inhibition due to compound activity was calculated to determine IC50.

T3 sequence (P16234 24-1089): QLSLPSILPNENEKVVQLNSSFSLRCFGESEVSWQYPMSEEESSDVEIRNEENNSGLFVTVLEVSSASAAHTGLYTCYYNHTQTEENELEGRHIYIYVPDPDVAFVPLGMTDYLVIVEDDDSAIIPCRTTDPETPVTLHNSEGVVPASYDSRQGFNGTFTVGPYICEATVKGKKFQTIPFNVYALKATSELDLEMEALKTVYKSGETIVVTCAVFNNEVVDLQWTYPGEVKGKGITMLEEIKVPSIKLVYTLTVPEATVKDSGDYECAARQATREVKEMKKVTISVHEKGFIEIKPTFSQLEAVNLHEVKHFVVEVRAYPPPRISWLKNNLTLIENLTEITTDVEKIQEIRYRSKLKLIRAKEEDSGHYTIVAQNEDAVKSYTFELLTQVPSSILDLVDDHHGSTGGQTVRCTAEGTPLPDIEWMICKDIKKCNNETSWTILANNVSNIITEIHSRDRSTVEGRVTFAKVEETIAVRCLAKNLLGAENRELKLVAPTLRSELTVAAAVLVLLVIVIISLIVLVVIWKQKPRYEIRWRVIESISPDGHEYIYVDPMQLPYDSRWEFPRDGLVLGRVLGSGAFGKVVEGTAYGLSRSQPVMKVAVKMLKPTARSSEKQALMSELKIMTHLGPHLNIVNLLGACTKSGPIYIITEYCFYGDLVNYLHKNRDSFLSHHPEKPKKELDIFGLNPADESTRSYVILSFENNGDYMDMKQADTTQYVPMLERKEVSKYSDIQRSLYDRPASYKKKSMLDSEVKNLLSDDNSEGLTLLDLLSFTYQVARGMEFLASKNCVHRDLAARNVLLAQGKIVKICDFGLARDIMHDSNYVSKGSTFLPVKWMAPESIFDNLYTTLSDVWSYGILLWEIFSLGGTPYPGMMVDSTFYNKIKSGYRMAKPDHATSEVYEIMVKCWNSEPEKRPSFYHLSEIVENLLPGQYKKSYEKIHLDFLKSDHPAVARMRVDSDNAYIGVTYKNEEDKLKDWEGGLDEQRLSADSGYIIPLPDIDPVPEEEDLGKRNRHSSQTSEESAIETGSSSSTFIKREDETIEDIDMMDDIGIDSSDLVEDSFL
T2 sequence (P07333 20-972): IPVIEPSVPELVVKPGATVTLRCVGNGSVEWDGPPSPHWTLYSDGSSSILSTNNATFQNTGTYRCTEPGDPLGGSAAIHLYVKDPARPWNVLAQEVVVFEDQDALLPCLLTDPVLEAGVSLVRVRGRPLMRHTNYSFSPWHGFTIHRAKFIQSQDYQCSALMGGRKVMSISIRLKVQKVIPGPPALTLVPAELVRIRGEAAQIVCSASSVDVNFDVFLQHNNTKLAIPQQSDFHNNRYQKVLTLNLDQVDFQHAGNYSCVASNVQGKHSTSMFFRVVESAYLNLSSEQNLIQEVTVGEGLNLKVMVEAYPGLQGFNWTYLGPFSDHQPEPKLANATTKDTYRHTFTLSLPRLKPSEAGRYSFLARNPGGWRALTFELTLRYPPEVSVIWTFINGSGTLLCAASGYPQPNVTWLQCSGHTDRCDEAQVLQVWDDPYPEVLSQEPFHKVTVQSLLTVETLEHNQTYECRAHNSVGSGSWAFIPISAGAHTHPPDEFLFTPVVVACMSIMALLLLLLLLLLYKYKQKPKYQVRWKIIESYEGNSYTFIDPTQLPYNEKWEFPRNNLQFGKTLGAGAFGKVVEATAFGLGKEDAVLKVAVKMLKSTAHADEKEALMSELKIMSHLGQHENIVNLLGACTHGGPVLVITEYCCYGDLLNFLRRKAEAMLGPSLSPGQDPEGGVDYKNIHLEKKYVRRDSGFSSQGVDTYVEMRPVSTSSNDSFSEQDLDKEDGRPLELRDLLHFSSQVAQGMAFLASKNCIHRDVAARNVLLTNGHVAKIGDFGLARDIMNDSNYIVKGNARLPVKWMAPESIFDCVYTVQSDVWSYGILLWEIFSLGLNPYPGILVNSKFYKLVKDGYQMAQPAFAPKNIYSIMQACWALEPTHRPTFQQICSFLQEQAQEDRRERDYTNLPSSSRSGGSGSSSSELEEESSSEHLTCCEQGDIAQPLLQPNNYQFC
T1 sequence (P10721 26-976): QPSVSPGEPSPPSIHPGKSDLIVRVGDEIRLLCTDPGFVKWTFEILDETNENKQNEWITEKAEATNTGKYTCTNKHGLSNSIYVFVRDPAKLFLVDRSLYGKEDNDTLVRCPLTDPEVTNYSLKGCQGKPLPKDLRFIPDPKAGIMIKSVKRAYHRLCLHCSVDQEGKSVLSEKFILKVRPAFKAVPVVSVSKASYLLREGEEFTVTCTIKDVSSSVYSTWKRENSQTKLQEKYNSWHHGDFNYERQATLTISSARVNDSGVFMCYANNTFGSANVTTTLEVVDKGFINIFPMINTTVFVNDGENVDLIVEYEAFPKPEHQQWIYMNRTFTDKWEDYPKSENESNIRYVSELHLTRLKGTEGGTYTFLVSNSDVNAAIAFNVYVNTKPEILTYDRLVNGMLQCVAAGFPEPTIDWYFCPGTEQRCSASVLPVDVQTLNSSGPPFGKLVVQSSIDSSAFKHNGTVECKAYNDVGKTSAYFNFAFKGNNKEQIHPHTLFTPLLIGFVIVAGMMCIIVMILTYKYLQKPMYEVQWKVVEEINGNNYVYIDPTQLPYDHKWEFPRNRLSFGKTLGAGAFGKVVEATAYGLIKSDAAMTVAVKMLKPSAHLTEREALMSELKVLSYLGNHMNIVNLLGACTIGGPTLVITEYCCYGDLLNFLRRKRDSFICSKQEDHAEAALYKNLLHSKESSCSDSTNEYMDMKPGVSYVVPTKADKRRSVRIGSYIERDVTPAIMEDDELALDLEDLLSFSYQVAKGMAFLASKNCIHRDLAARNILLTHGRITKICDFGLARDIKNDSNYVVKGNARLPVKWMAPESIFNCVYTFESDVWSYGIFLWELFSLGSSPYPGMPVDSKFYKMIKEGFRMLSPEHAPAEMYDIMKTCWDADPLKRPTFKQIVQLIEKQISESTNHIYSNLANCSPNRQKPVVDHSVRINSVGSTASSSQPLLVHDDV
T4 sequence (P10721 26-976): as above

In the case of `Cc1nc(-c2ccc(C)c(NC(=O)c3cnc4cc(COCCO)ccn34)c2)no1` [Compound I-110], the pIC50 (wtKIT) was no less than 7.30, the pIC50 (CSF-1R) was 5.30 to 6.30 and the pIC50 (PDGFRα) was 5.30 to 6.30. For the same molecule, the pIC50 [1] was 6.30 to 7.30, the “Solubility (μM)” value (Kinetic solubility assay) was “* (a solubility greater than 50 μM)” and the pIC50 [2] was no less than 7.00.
